Laboratory results published in ChEMBL document CHEMBL3882729, “Receptor-type kinase modulators and methods of use” (2009).

Tests used:
Ephrin type-A receptor 2 = Ephrin type-A receptor 2 (Homo sapiens, UniProt P29317); assay: Inhibition of recombinant human N-terminal His6-tagged EphA2 (N598 to R890 residues) expressed in baculovirus using poly-EY as substrate after 180 mins by luciferase coupled chemiluminescence assay
Ephrin type-B receptor 4 = molecular target: T1, Ephrin type-B receptor 4 (Homo sapiens, UniProt P54760); assay: Inhibition of recombinant human N-terminal His6-tagged EphB4 kinase domain (E605 to E890 residues) expressed in baculovirus using poly-AEKY as substrate after 150 mins in presence of gamma33P-ATP by liquid scintillation spectrometry
T1 sequence (P54760 whole entry): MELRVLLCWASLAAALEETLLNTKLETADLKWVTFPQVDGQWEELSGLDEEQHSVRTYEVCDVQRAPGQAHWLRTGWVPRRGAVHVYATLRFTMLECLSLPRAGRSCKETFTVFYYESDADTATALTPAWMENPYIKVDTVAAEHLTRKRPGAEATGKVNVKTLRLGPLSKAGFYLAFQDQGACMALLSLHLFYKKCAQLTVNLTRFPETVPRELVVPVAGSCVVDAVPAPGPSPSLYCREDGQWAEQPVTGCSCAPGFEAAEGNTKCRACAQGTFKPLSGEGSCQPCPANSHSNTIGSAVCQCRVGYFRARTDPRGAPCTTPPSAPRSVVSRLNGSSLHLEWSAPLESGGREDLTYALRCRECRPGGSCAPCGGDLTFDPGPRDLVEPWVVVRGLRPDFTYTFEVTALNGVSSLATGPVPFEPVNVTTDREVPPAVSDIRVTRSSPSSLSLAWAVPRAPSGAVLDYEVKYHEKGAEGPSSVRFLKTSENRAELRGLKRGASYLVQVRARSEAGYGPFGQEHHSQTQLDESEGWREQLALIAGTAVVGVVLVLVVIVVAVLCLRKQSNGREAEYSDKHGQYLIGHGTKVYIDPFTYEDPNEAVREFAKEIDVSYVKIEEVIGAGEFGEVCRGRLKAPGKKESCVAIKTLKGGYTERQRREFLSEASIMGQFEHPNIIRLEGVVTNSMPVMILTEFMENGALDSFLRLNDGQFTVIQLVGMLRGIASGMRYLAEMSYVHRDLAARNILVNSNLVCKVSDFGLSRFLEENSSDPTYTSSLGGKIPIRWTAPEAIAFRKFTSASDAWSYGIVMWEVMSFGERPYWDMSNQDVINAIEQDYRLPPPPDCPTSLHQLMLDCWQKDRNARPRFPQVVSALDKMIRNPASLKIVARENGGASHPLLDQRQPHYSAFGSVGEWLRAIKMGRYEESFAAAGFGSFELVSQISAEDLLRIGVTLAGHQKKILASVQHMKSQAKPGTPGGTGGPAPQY

[1] = molecular target: Receptor tyrosine-protein kinase erbB-2 (Homo sapiens, UniProt P04626); assay: Inhibition of recombinant human N-terminal GST His6-tagged thrombin cleavage site-fused ErbB2 kinase domain (Q679 to V1255 residues) expressed in baculovirus infected insect Sf9 cells using biotinylated poly-EY as substrate after 60 mins by alphascreen assay
[2] = molecular target: Vascular endothelial growth factor receptor 2 (Homo sapiens, UniProt P35968); assay: Inhibition of recombinant human N-terminal GST-fused KDR (D807 to V1356 residues) expressed in baculovirus infected […] insect Sf9 cells using poly-EY as substrate after 240 mins by luciferase coupled chemiluminescence assay
Sequence of Vascular endothelial growth factor receptor 2 (P35968 whole entry, the tested form may be a part): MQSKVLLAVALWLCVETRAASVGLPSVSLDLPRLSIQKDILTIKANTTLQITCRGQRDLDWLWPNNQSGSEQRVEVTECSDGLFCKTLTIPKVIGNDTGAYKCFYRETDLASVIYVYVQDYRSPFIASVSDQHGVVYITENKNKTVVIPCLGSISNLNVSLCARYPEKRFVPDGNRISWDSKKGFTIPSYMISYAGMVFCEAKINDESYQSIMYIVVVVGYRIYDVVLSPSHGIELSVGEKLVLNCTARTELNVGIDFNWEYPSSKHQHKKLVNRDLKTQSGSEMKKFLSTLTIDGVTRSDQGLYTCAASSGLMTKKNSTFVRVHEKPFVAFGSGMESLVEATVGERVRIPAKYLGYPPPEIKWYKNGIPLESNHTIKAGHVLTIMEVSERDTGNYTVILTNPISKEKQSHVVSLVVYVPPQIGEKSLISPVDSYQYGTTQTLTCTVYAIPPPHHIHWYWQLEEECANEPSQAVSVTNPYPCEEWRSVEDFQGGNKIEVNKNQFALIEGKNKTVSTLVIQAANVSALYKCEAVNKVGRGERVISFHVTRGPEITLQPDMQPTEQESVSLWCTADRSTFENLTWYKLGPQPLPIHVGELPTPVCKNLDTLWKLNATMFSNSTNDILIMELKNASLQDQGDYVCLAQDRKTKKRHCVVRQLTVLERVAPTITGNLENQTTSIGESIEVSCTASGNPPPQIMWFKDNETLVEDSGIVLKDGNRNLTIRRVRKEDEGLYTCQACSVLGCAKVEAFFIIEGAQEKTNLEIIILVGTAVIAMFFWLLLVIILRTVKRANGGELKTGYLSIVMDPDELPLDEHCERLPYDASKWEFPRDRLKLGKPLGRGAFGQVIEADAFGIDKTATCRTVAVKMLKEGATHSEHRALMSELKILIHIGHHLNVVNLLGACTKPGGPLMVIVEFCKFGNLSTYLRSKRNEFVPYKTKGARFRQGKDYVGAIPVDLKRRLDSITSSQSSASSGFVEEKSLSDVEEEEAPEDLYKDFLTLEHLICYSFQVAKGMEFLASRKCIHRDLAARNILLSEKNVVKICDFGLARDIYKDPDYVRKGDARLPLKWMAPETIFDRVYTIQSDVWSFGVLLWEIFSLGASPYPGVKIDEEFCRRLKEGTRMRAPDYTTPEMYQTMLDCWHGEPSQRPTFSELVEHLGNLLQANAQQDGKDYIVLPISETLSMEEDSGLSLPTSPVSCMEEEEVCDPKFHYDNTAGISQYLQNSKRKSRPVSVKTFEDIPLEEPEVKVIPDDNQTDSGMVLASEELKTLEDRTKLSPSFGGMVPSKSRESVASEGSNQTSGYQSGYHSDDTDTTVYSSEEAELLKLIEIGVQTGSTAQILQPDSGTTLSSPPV

Sequence of Ephrin type-A receptor 2 (P29317 whole entry, the tested form may be a part): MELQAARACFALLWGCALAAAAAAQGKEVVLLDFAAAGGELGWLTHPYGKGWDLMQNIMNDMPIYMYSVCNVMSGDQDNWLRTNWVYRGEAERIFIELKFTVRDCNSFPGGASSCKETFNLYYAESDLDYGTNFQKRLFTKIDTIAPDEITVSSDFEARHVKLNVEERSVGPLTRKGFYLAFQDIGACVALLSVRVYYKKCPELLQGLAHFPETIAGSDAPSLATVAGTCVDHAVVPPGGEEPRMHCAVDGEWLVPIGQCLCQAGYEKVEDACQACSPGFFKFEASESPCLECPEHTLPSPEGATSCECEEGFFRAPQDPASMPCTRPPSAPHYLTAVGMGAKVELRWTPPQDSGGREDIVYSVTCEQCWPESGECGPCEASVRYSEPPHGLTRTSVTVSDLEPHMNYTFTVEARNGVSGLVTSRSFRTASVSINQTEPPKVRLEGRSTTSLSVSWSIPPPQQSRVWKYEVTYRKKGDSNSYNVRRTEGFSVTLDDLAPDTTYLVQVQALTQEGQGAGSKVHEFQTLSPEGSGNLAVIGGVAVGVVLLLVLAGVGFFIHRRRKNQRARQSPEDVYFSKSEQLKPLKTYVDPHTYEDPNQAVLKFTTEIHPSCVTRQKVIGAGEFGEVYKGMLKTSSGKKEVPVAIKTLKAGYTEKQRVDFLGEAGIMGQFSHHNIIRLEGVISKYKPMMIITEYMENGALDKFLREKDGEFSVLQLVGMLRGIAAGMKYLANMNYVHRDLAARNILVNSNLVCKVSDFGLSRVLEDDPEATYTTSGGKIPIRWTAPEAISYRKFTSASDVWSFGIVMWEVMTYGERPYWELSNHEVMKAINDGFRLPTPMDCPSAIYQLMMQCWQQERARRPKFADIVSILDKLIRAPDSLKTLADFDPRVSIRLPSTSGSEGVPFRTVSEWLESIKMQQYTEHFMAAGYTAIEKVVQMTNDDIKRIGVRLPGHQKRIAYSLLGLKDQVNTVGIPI
Sequence of Receptor tyrosine-protein kinase erbB-2 (P04626 whole entry, the tested form may be a part): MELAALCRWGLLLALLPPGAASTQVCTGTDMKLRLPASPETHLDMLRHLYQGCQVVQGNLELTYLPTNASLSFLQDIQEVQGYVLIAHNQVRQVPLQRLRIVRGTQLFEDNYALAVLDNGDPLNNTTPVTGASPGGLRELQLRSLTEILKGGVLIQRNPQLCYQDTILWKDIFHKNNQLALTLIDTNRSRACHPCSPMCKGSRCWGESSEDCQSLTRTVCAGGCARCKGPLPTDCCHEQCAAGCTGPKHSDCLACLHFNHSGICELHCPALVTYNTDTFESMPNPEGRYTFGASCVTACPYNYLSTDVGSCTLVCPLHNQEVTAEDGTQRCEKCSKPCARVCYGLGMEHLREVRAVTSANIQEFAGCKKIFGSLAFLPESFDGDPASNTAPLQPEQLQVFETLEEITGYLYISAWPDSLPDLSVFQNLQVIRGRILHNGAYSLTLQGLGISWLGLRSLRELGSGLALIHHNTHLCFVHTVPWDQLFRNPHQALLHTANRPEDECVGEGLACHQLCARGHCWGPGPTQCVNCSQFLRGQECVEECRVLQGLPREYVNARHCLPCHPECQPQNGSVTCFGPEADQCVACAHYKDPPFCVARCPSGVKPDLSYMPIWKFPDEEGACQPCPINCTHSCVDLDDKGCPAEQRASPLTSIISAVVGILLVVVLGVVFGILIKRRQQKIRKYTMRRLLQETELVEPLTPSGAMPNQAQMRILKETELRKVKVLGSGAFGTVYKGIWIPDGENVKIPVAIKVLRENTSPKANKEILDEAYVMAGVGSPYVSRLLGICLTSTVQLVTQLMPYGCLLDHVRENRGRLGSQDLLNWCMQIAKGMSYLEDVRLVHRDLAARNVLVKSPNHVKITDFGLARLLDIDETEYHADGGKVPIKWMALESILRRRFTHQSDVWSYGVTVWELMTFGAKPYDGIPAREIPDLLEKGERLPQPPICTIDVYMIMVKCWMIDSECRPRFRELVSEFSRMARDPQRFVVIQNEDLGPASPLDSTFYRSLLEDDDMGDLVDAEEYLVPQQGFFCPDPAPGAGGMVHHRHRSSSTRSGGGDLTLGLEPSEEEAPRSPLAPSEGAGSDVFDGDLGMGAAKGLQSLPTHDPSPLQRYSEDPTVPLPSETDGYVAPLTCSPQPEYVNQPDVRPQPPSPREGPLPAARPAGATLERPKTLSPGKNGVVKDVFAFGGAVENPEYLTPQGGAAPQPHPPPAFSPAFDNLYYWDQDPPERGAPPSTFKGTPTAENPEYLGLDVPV

| SMILES | IC50 (Ephrin type-A receptor 2) [nM] | IC50 (Ephrin type-B receptor 4) [nM] | IC50 [1] [nM] | IC50 [2] [nM] |
| --- | --- | --- | --- | --- |
| COc1cc2c(Nc3ccc(Cl)c(Cl)c3F)ncnc2cc1OC[C@@H]1CN(C)CC(=O)N1C | 50 to 1000 | 50 to 1000 | 1000 to 20000 | 50 to 1000 |
| COc1cc2c(Nc3ccc(Cl)c(Cl)c3)ncnc2cc1OCC1CN(C)C(C)(C)CO1 (stereo unspecified) | 50 to 1000 | < 50 | < 50 | < 50 |
| COc1cc2c(Nc3ccc(Cl)c(Cl)c3)ncnc2cc1OCCC1CN(C(=O)OC(C)(C)C)C(C)(C)CO1 (stereo unspecified) | 1000 to 20000 | 1000 to 20000 | 1000 to 20000 | 1000 to 20000 |
| COc1cc2c(Nc3ccc(Cl)c(Cl)c3)ncnc2cc1OCC1CN(C(=O)C2CCCC2)CCO1 (stereo unspecified) | 50 to 1000 | < 50 | < 50 | 50 to 1000 |
| COc1cc2c(Nc3ccc(Cl)c(Cl)c3C)ncnc2cc1OCC1CN(C)CCO1 (stereo unspecified) | 50 to 1000 | < 50 | 1000 to 20000 | 50 to 1000 |
| COc1cc2c(Nc3ccc(Cl)c(Cl)c3)ncnc2cc1OCC1CN(S(=O)(=O)CCCCl)CCO1 (stereo unspecified) | 50 to 1000 | < 50 | 50 to 1000 | 50 to 1000 |
| COc1cc2c(Nc3ccc(Br)c(Cl)c3C)ncnc2cc1OCC1CN(C)CCO1 (stereo unspecified) | 50 to 1000 | 50 to 1000 | 50 to 1000 | 50 to 1000 |
| COc1cc2c(Nc3ccc(Cl)c(Cl)c3F)ncnc2cc1OC[C@@H]1CN(C)CC(=O)N1 | 50 to 1000 | 50 to 1000 | 50 to 1000 | 50 to 1000 |
| COc1cc2c(Nc3ccc(Br)c(C)c3)ncnc2cc1OCC1CN(C)CCO1 (stereo unspecified) | 50 to 1000 | 50 to 1000 | 50 to 1000 | 50 to 1000 |
| COc1cc2c(Nc3ccc(Br)c(Cl)c3F)ncnc2cc1OC[C@@H]1CN(C)CC(=O)N1 | 50 to 1000 | 50 to 1000 | 50 to 1000 | 50 to 1000 |
| COc1cc2c(Nc3ccc(Cl)c(Cl)c3)ncnc2cc1OCCC1CN(C)CC(C)(C)O1 (stereo unspecified) | 1000 to 20000 | 50 to 1000 | 50 to 1000 | 50 to 1000 |
| COc1cc2c(Nc3ccc(Br)c(F)c3F)ncnc2cc1OCC1CN(C)CCO1 (stereo unspecified) | 50 to 1000 | 50 to 1000 | 50 to 1000 | < 50 |
| CCNC(=NC#N)N1CCOC(COc2cc3ncnc(Nc4ccc(Cl)c(Cl)c4)c3cc2OC)C1 (stereo unspecified) | 50 to 1000 | < 50 | < 50 | 50 to 1000 |
| COc1cc2c(Nc3ccc(Br)c(Cl)c3)ncnc2cc1O[C@@H]1CO[C@H]2[C@@H]1OC[C@@H]2O | 1000 to 20000 | 50 to 1000 | 50 to 1000 | 1000 to 20000 |
| COc1cc2c(Nc3ccc(Br)c(Cl)c3)ncnc2cc1O[C@H]1CO[C@H]2[C@@H]1OC[C@@H]2SC | 1000 to 20000 | 50 to 1000 | 1000 to 20000 | 1000 to 20000 |
| COc1cc2c(Nc3ccc(Cl)c(Cl)c3)ncnc2cc1OCC1CN(C(=O)c2c(C)noc2C)CCO1 (stereo unspecified) | 50 to 1000 | < 50 | < 50 | 50 to 1000 |
| COc1cc2c(Nc3cc(F)c(Br)cc3F)ncnc2cc1OCC1CN(C)CCO1 (stereo unspecified) | 50 to 1000 | 50 to 1000 | 50 to 1000 | < 50 |
| COc1cc2c(Nc3cc(F)c(Br)c(F)c3)ncnc2cc1OCC1CN(C)CCO1 (stereo unspecified) | 50 to 1000 | 50 to 1000 | 50 to 1000 | < 50 |
| COc1cc2c(Nc3ccc(Cl)c(Cl)c3)ncnc2cc1OCC1CN(C(C)=O)CCCO1 (stereo unspecified) | 50 to 1000 | < 50 | < 50 | 50 to 1000 |
| COc1cc2c(Nc3ccc(Cl)c(Cl)c3)ncnc2cc1OCCC1CN(C)C(C)(C)CO1 (stereo unspecified) | 50 to 1000 | 50 to 1000 | 50 to 1000 | 50 to 1000 |
| COc1cc2c(Nc3ccc(Cl)c(Cl)c3)ncnc2cc1OCCC1CNC(C)(C)CO1 (stereo unspecified) | 50 to 1000 | 50 to 1000 | 50 to 1000 | 50 to 1000 |
| COc1cc2c(Nc3cc(Cl)c(Cl)cc3F)ncnc2cc1OCC1CN(C)CCO1 (stereo unspecified) | 50 to 1000 | < 50 | 50 to 1000 | 50 to 1000 |
| COc1cc2c(Nc3ccc(Cl)c(Cl)c3)ncnc2cc1OCC1CN(C(=O)c2cccnc2Cl)CCO1 (stereo unspecified) | 50 to 1000 | < 50 | < 50 | < 50 |
| CCC(=O)N1CCOC(COc2cc3ncnc(Nc4ccc(Cl)c(Cl)c4)c3cc2OC)C1 (stereo unspecified) | 50 to 1000 | < 50 | < 50 | 50 to 1000 |
| COc1cc2c(Nc3ccc(Br)c(Cl)c3Cl)ncnc2cc1OCC1CN(C)CCO1 (stereo unspecified) | 50 to 1000 | < 50 | 50 to 1000 | 50 to 1000 |
| COc1cc2c(Nc3ccc(Br)c(Cl)c3)ncnc2cc1O[C@@H]1CO[C@H]2[C@@H]1OC[C@@H]2OS(C)(=O)=O | 1000 to 20000 | 1000 to 20000 | 1000 to 20000 | 1000 to 20000 |

Next, values leading:

| IC50 (Ephrin type-A receptor 2) [nM] | IC50 (Ephrin type-B receptor 4) [nM] | IC50 [1] [nM] | IC50 [2] [nM] | SMILES |
| --- | --- | --- | --- | --- |
| 50 to 1000 | 50 to 1000 | 1000 to 20000 | < 50 | COc1cc2c(Nc3ccc(C)c(Cl)c3Cl)ncnc2cc1OCC1CN(C)CCO1 (stereo unspecified) |
| 50 to 1000 | 50 to 1000 | 1000 to 20000 | 50 to 1000 | COc1cc2c(Nc3ccc(Br)c(Cl)c3F)ncnc2cc1OC[C@@H]1CN(C)CC(=O)N1C |
| 50 to 1000 | < 50 | 50 to 1000 | 50 to 1000 | COc1cc2c(Nc3ccc(Cl)c(Cl)c3)ncnc2cc1OCC1CN(C)C(C)(C)C(=O)O1 (stereo unspecified) |
| < 50 | < 50 | 50 to 1000 | 50 to 1000 | COc1cc2c(Nc3ccc(F)c(Cl)c3F)ncnc2cc1OCC1CN(C)C(C)(C)CO1 (stereo unspecified) |
| 50 to 1000 | < 50 | < 50 | 50 to 1000 | CN/C(=N\C#N)N1CCOC(COc2cc3ncnc(Nc4ccc(Cl)c(C)c4)c3cc2OC)C1 (stereo unspecified) |
| < 50 | < 50 | < 50 | < 50 | COc1cc2c(Nc3ccc(Cl)c(Cl)c3F)ncnc2cc1OCC1CN(C)CCO1 (stereo unspecified) |
| < 50 | < 50 | < 50 | < 50 | COc1cc2c(Nc3ccc(F)c(Cl)c3F)ncnc2cc1OCC1CN(C)CCO1 (stereo unspecified) |
| < 50 | < 50 | < 50 | < 50 | COc1cc2c(Nc3ccc(Cl)c(Cl)c3F)ncnc2cc1OCC1CN(C)C(C)(C)CO1 (stereo unspecified) |
| < 50 | < 50 | < 50 | < 50 | COc1cc2c(Nc3cc(Cl)c(Cl)cc3F)ncnc2cc1OCC1CN(C)C(C)(C)CO1 (stereo unspecified) |
| < 50 | < 50 | < 50 | < 50 | COc1cc2c(Nc3ccc(Br)c(Cl)c3F)ncnc2cc1OCC1CN(C)CCO1 (stereo unspecified) |
| < 50 | < 50 | < 50 | < 50 | CC(C)Oc1cc2c(Nc3ccc(Cl)c(Cl)c3)ncnc2cc1OCC1CN(C)CCO1 (stereo unspecified) |
| < 50 | < 50 | < 50 | < 50 | COc1cc2c(Nc3ccc(Br)c(Cl)c3F)ncnc2cc1OCC1CN(C)C(C)(C)CO1 (stereo unspecified) |
| < 50 | < 50 | < 50 | < 50 | CCOc1cc2c(Nc3ccc(Cl)c(Cl)c3)ncnc2cc1OCC1CN(C)CCO1 (stereo unspecified) |
| < 50 | < 50 | 50 to 1000 | < 50 | COc1cc2c(Nc3ccc(Br)c(Cl)c3)ncnc2cc1OCC1CN(C)CCO1 (stereo unspecified) |
| < 50 | < 50 | < 50 | < 50 | CC(C)Oc1cc2c(Nc3ccc(Cl)c(Cl)c3)ncnc2cc1OCC1CNCCO1 (stereo unspecified) |
| < 50 | < 50 | < 50 | 50 to 1000 | COc1cc2c(Nc3ccc(Cl)c(Cl)c3)ncnc2cc1OCC1CN(/C(=N/C#N)N2CCCC2)CCO1 (stereo unspecified) |
| < 50 | < 50 | 50 to 1000 | < 50 | COc1cc2c(Nc3cc(Cl)c(Br)cc3F)ncnc2cc1OCC1CN(C)C(C)(C)CO1 (stereo unspecified) |
| < 50 | < 50 | 50 to 1000 | 50 to 1000 | COc1cc2c(Nc3ccc(Br)c(Cl)c3Cl)ncnc2cc1OCC1CN(C)C(C)(C)CO1 (stereo unspecified) |
